Data reported in publication PMC7730182, “Synthesis and in Silico Modelling of the Potential Dual Mechanistic Activity of Small Cationic Peptides Potentiating the Antibiotic Novobiocin against Susceptible and Multi-Drug Resistant Escherichia coli” (International Journal of Molecular Sciences, 2020).
Where a SMILES comes first, the peptide text is derived from it. The star is where a group is joined. βNA = c1ccc2cc(N*)ccc2c1

Columns and labels:
Format in all cases: cell-based, Escherichia coli
[1] = system: susceptible E. coli NCTC 10418; assay: Novobiocin potentiation assay (MIC of novobiocin with fixed concentration of peptide or PAβN); set-up: key to MIC of Novobiocin, E. coli NCTC 10418, +128 μg/mL added peptide / MIC of Novobiocin, E. coli NCTC 10418, +32 μg/mL added peptide: Non potentiating (NP) indicated no reduction in the MIC of novobiocin was observed; details: for MIC of Novobiocin, E. coli NCTC 10418, +128 μg/mL added peptide / MIC of Novobiocin, E. coli NCTC 10418, +32 μg/mL added peptide: Iso-Sensitest Broth, 5 × 10^5 CFU/mL, visual read-out; for MIC of Novobiocin, E. coli NCTC 10418, +128 μg/mL added peptide: fixed 128 μg/mL peptide; for MIC of Novobiocin, E. coli NCTC 10418, +32 μg/mL added peptide: fixed 32 μg/mL peptide
Description: (§1) The peptides were also tested in combination with antibiotics novobiocin and norfloxacin. Novobiocin has low efficacy against Gram-negative bacteria due to its hydrophobicity, giving limited cell permeability.
(§2) The antibacterial activity of the peptides and peptide/antibiotic combinations were tested by the broth microdilution assay according to [24]. Escherichia coli NCTC 10,418 and Staphylococcus aureus NCTC 12,981 were obtained from the National Collection of Type Cultures, UK. Escherichia coli G69 was a clinical isolate as previously described.
(§3) Briefly, all bacterial strains were cultured on nutrient agar (Sigma-Aldrich, Gillingham, UK) plates and incubated for 24 h at 37 °C prior to MIC determination. In addition, known quantities of each test sample were dissolved in DMSO and then diluted in ISB (Iso- Sensitest Broth, Oxoid, Basingstoke, UK) to give a range concentration of 128–0 μg/mL, unless stated differently. […] Finally, the overnight cultures of each of the tested strains were suspended to an inoculum density of approximately 1.0 × 10^8 CFU/mL in phosphate buffered saline (PBS), consisting of 137 mM NaCl, 3 mM KCl, 8 mM Na2HPO4, and […] (Oxoid, Basingstoke, UK). The cell suspensions were standardized by adjusting the optical density to 0.1 at 600 nm (Thermo Scientific UV-Vis Spectrophotometer, Abingdon, UK) before being diluted 1:100 in ISB prior to inoculation
(§4) The assays were performed by microdilution using 96-well microtiter plates with a final inoculum of 5 × 10^5 CFU/mL and each sample was tested in duplicate in at least two independent experiments in order to confirm the reliability of the data. Results were determined by visual inspection of the wells and the presence of an evident opaque medium or white pellets were indicative of bacterial growth. The MIC values were recorded as the lowest concentration at which no bacterial growth was detected.

[2] = system: multi-drug resistant clinical isolate E. coli G69; assay: as above; set-up: key to MIC of Novobiocin, E. coli G69, +32 μg/mL added peptide / MIC of Novobiocin, E. coli G69, +128 μg/mL added peptide: Non potentiating (NP) indicated no reduction in the MIC of novobiocin was observed; details: for MIC of Novobiocin, E. coli G69, +128 μg/mL added peptide: fixed 128 μg/mL peptide
Description: as §1, §2, §3, §4

[3] = system: multidrug resistant clinical isolate E. coli G69; assay: Norfloxacin potentiation assay (MIC of norfloxacin with fixed concentration of peptide or PAβN); details: broth microdilution, duplicate; for MIC of norfloxacin, E. coli G69, +128 μg/mL of peptide: fixed 128 μg/mL peptide
Description: (§5) In order to gather more evidence on the potential mechanisms of action, the effects of the peptides in combination with the quinolone antibiotic norfloxacin were determined. Norfloxacin is active against Gram-negative bacteria, generally achieving entry via porin channels, but is also able to enter the bacterial cell via the membrane in porin-deficient mutants. Therefore, any membrane permeability mechanism would not be expected to have a significant effect on improving the activity of norfloxacin in porin-competent strains. This is indeed what was observed (Table S5), which added weight to our hypothesis that our very short peptides may be acting as membrane permeability enhancers for novobiocin.
as §2
as §3, with “inoculation […]” for “inoculation”
as §4, with “detected. […]” for “detected.”
(§6) potentiating novobiocin. Assays were performed at fixed concentration of 128 μg/mL against susceptible E. coli 10418 and multidrug resistant clinical isolate E. coli G69. Potentiation assay for norfloxacin was also performed in presence of 64 μg/mL of RND efflux pump inhibitor PAβN. All tests were repeated in […]
(§7) Compound Sequence MIC of norfloxacin (μg/mL) […]
(§8) inhibitor PaβN but no potentiation was observed, so the assay was not repeated at lower concentrations.

[4] = system: susceptible E. coli 10418; assay: as above; details: broth microdilution, duplicate; for MIC of norfloxacin, E. coli 10418, +128 μg/mL of peptide: fixed 128 μg/mL peptide
Description: as §5, §2
as §3, with “inoculation […]” for “inoculation”
as §4, with “detected. […]” for “detected.”
as §6, §7, §8

[5] = broth microdilution, Iso-Sensitest Broth, 5 × 10^5 CFU/mL, visual read-out, duplicate
[6] = fixed 32 μg/mL PAβN, broth microdilution, duplicate
[7] = fixed 64 μg/mL PAβN, broth microdilution, duplicate

Row | Compound | MIC of Novobiocin, E. coli NCTC 10418, +128 μg/mL added peptide ([1]; broth microdilution, duplicate) | MIC of Novobiocin, E. coli G69, +128 μg/mL added peptide [2, 5] | MIC of norfloxacin, E. coli G69, +128 μg/mL of peptide [3] | MIC of norfloxacin, E. coli 10418, +128 μg/mL of peptide [4] | further results
1 | KWKW [Compound 14, short cationic peptide KWKW, amidated at the C-terminus] | NP | NP |  |  | 
2 | FKFKF [Compound 19, short cationic peptide FKFKF, amidated at the C-terminus] | 4 µg/mL | 8 µg/mL |  |  | MIC of Novobiocin, E. coli NCTC 10418, +32 μg/mL added peptide ([1]; broth microdilution, duplicate): 128 µg/mL; potentiation of novobiocin against multi-drug resistant E. coli, result in words ([2]; E. coli G69, added peptide): restore the susceptibility; MIC of Novobiocin, E. coli G69, +32 μg/mL added peptide ([2]; broth microdilution, Iso-Sensitest Broth, 5 × 10^5 CFU/mL, visual read-out, fixed 32 μg/mL peptide, duplicate): 32 µg/mL
3 | KFKF [Compound 18, short cationic peptide KFKF, amidated at the C-terminus] | NP | NP |  |  | 
4 | FRRQRF [Compound 21, short cationic peptide FRRQRF, C-terminal amide; commercial sample from ThermoFisher] | NP ^† | NP | > 128 µg/mL | 0.062 µg/mL | 
5 | FKFK [Compound 17, short cationic peptide FKFK, amidated at the C-terminus] | NP | NP |  |  | 
6 | WRWR [Compound 4, short cationic peptide WRWR, amidated at the C-terminus] | 2 µg/mL | NP | > 128 µg/mL | 0.062 µg/mL | MIC of Novobiocin, E. coli NCTC 10418, +32 μg/mL added peptide ([1]; broth microdilution, duplicate): 32 µg/mL
7 | NC(N)=NCCC[C@H](NC(=O)[C@@H](N)Cc1ccccc1)C(=O)Nc1ccc2ccccc2c1 [PAβN, phenylalanine-arginine-β-naphthylamide, reference compound] (H-Phe-Arg-βNA) |  |  |  |  | reduction in MIC for novobiocin, susceptible E. coli 10418 ([1]; PAβN concentration of 72 μM (32 μg/mL)): twofold; MIC of Novobiocin, E. coli NCTC 10418, +32 μg/mL PAβN [1, 6]: 16 µg/mL; MIC of Novobiocin, E. coli NCTC 10418, +64 μg/mL PAβN [1, 7]: 8 µg/mL; MIC of Novobiocin, E. coli G69, +32 μg/mL PAβN [2, 6]: 8 µg/mL; MIC of Novobiocin, E. coli G69, +64 μg/mL PAβN [2, 7]: 2 µg/mL; concentration at which synergism with novobiocin is provided against multi-drug resistant E. coli G69 ([2]; molar equivalent of the 32 μg/mL fixed concentration): 72 µM; MIC of norfloxacin, E. coli G69, +64 μg/mL PAβN ([3]; fixed 64 μg/mL PAβN): > 128 µg/mL; MIC of norfloxacin, E. coli 10418, +64 μg/mL PAβN ([4]; fixed 64 μg/mL PAβN): 0.125 µg/mL
8 | WKWK [Compound 13, short cationic peptide WKWK, amidated at the C-terminus] | NP | NP |  |  | 
9 | RPRPRPL [Compound 22, proline-rich cationic peptide RPRPRPL, amidated at the C-terminus] | NP | NP | > 128 µg/mL | 0.062 µg/mL | potentiation of the MIC of novobiocin, result in words ([1]; added peptide, wording covers susceptible and multi-drug resistant strain): did not show any significant potentiation
